Measured values: patent publication US20260285853A1, “COMPOUNDS AND METHODS FOR MODULATING SPLICING” (REMIX THERAPEUTICS INC., priority 2023, published 2026)
Like-named read-outs stand apart in the source and are kept apart here.

Columns and labels:
Assay type in all cases: cell-based
HTT mRNA [1] = assay: Splicing RT-qPCR assay (THP), Table 2A
MYB mRNA [2] = assay: Splicing RT-qPCR assay (THP), Table 2A
HTT mRNA [3] = assay: Gene panel canonical junction qPCR assay, decrease in CJ mRNA, Table 3
Summary of the method: (§1)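 Eleven-point dose responses from 10 uM final, 24 h, DMSO ≤0.25%, in A673 or K562 cells. Relative quantification by 2^(−ΔΔCt) against housekeeper and vehicle was converted to percent response over fixed ΔCt windows and fitted to yield IC50.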

MYB mRNA [4] = assay: as above
Summary of the method: as §1

[5] = system: SH-SY5Y (human neuroblastoma) cells; assay: Cell viability, Cell Titer Glo 2.0 assay; details: read-out: Viability SHSY5Y.3 GI50
Summary of the method: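 Following a 72 h incubation (37 °C, 5% CO2, 0.1% DMSO final), compound toxicity toward SH-SY5Y cells was quantified by CellTiter-Glo 2.0.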

[6] = Table 2A (THP), AJ mRNA increase, read-out: HTT AJ (increase in alternative junction mRNA, AC50)
[7] = Table 2A (THP), CJ mRNA decrease, read-out: HTT CJ (decrease in canonical junction mRNA, IC50)
[8] = Table 2A (THP), AJ mRNA increase, read-out: MYB AJ (increase in alternative junction mRNA, AC50)
[9] = Table 2A (THP), CJ mRNA decrease, read-out: MYB CJ (decrease in canonical junction mRNA, IC50)
[10] = decrease in canonical junction (CJ) mRNA, gene panel qPCR, Table 3
[11] = Table 2A, THP, HTT alternative junction (AJ) mRNA, read-out: HTT AJ (AC50, increase in alternative junction mRNA)
[12] = Table 2A, THP, HTT canonical junction (CJ) mRNA, read-out: HTT CJ (IC50, decrease in canonical junction mRNA)
[13] = Table 2A, THP, MYB alternative junction (AJ) mRNA, read-out: MYB AJ (AC50, increase in alternative junction mRNA)
[14] = Table 2A, THP, MYB canonical junction (CJ) mRNA, read-out: MYB CJ (IC50, decrease in canonical junction mRNA)
[15] = decrease in CJ mRNA levels, canonical junction qPCR, gene panel

| SMILES | IC50 (HTT mRNA [1]; [7]) [nM] | IC50 (MYB mRNA [2]; [9]) [nM] | IC50 (HTT mRNA [3]; [10]) [nM] | IC50 (MYB mRNA [4]; [10]) [nM] | GI50 [5] [nM] | IC50 (HTT mRNA [1]; [12]) [nM] | IC50 (MYB mRNA [2]; [14]) [nM] | IC50 (HTT mRNA [3]; [15]) [nM] | IC50 (MYB mRNA [4]; [15]) [nM] | AC50 (HTT mRNA [1]; [6]) [nM] | AC50 (MYB mRNA [2]; [8]) [nM] | AC50 (HTT mRNA [1]; [11]) [nM] | AC50 (MYB mRNA [2]; [13]) [nM] |
| --- | --- | --- | --- | --- | --- | --- | --- | --- | --- | --- | --- | --- | --- |
| COc1c(NC(=O)c2c(F)cc(N3CC[C@@H](NC4CC4)C4(CC4)C3)c3cn(C)nc23)cn2cc(C)nc2c1F [Compound 368, 4-[(8R)-8-(cyclopropylamino)-5-azaspiro[2.5]octan-5-yl]-6-fluoro-N-(8-fluoro-7-methoxy-2-methyl-imidazo[1,2-a]pyridin-6-yl)-2-methyl-indazole-7-carboxamide] | 1000 to 10000 | < 100 | 1000 to 10000 | < 100 | 100 to 1000 | – | – | – | – | 1000 to 10000 | < 100 | – | – |
| Cc1cn2cc(NC(=O)c3c(F)cc(N4CCC(NC5CC5)CC4)c4cn(C)nc34)cc(Oc3cn[nH]c3)c2n1 [Compound 410, N-(8-((1H-pyrazol-4-yl)oxy)-2-methylimidazo[1,2-a]-pyridin-6-yl)-4-(4-(cyclopropylamino)piperidin-1-yl)-6-fluoro-2-methyl-2H-indazole-7-carboxamide 2,2,2-trifluoroacetate] | > 10000 | > 10000 | > 10000 | > 10000 | > 10000 | – | – | – | – | > 10000 | > 10000 | – | – |
| CCNC1CCN(c2ccc(C(=O)Nc3cc(Oc4ccc(C)cc4)c4nc(C)cn4c3)c3nn(C)cc23)CC1 [Compound 328, 4-(4-(ethylamino)-piperidin-1-yl)-2-methyl-N-(2-methyl-8-(p-tolyloxy)-imidazo[1,2-a]pyridin-6-yl)-2H-indazole-7-carboxamide 2,2,2-trifluoroacetate] | 100 to 1000 | < 100 | 100 to 1000 | < 100 | 100 to 1000 | – | – | – | – | 100 to 1000 | < 100 | – | – |
| Cc1cc2cc(NC(=O)c3ccc(N4CCC(NC5CC5)CC4)c4cn(C)nc34)n(C)c2c(C)n1 [Compound 469, 4-[4-(cyclopropyl-amino)-1-piperidyl]-2-methyl-N-(1,5,7-trimethyl-pyrrolo[2,3-c]-pyridin-2-yl)indazole-7-carboxamide] | 1000 to 10000 | 1000 to 10000 | 1000 to 10000 | 1000 to 10000 | 100 to 1000 | – | – | – | – | 1000 to 10000 | 1000 to 10000 | – | – |
| CCNC1CCN(c2ccc(C(=O)Nc3cc4cn(C)nc4cc3OC)c3nn(C)cc23)CC1 [Compound 388, 4-[4-(ethylamino)-1-piperidyl]-N-(6-methoxy-2-methyl-indazol-5-yl)-2-methyl-indazole-7-carboxamide] | 1000 to 10000 | 100 to 1000 | 1000 to 10000 | 100 to 1000 | 1000 to 10000 | – | – | – | – | 1000 to 10000 | 100 to 1000 | – | – |
| COc1cc(NC(=O)c2c(F)cc(N3CCC(NC4CC4)CC3)c3cn(C)nc23)cc2cn(C)nc12 [Compound 423, 4-[4-(cyclopropylamino)-1-piperidyl]-6-fluoro-N-(7-methoxy-2-methyl-indazol-5-yl)-2-methyl-indazole-7-carboxamide] | 1000 to 10000 | 100 to 1000 | 1000 to 10000 | 100 to 1000 | 1000 to 10000 | – | – | – | – | 1000 to 10000 | 100 to 1000 | – | – |
| COc1cc2nn(C)cc2cc1NC(=O)c1ccc(N2CC[C@@H]3CNCC[C@@H]32)c2cn(C)nc12 [Compound 515] | > 10000 | 100 to 1000 | > 10000 | 100 to 1000 | 1000 to 10000 | – | – | – | – | 1000 to 10000 | 100 to 1000 | – | – |
| Cc1cn2cc(NC(=O)c3c(F)cc(N4CCC(NC5CC5)CC4)c4cn(C)nc34)nc2c(CN)n1 [Compound 392, N-[8-(aminomethyl)-6-methyl-imidazo[1,2-a]-pyrazin-2-yl]-4-[4-(cyclopropylamino)-1-piperidyl]-6-fluoro-2-methyl-indazole-7-carboxamide] | > 10000 | 1000 to 10000 | > 10000 | 1000 to 10000 | > 10000 | – | – | – | – | > 10000 | 1000 to 10000 | – | – |
| COc1nnccc1NC(=O)c1c(F)cc(N2CCC(NC3CC3)CC2)c2cn(C)nc12 [Compound 413, 4-[4-(cyclopropylamino)-1-piperidyl]-6-fluoro-N-(3-methoxypyridazin-4-yl)-2-methyl-indazole-7-carboxamide] | 1000 to 10000 | > 10000 | 1000 to 10000 | > 10000 | 1000 to 10000 | – | – | – | – | > 10000 | 1000 to 10000 | – | – |
| Cc1cn2cc(NC(=O)c3ncc(N4CCC(NC5CC5)CC4)c4cn(C)nc34)cc(F)c2n1 [Compound 361, 4-[4-(cyclopropylamino)-1-piperidyl]-N-(8-fluoro-2-methyl-imidazo[1,2-a]pyridin-6-yl)-2-methyl-pyrazolo[3,4-c]pyridine-7-carboxamide] | > 10000 | 100 to 1000 | > 10000 | 100 to 1000 | 1000 to 10000 | – | – | – | – | 1000 to 10000 | 100 to 1000 | – | – |

More lines, main results first:

| IC50 (HTT mRNA [1]; [7]) [nM] | IC50 (MYB mRNA [2]; [9]) [nM] | IC50 (HTT mRNA [3]; [10]) [nM] | IC50 (MYB mRNA [4]; [10]) [nM] | GI50 [5] [nM] | IC50 (HTT mRNA [1]; [12]) [nM] | IC50 (MYB mRNA [2]; [14]) [nM] | IC50 (HTT mRNA [3]; [15]) [nM] | IC50 (MYB mRNA [4]; [15]) [nM] | SMILES | AC50 (HTT mRNA [1]; [6]) [nM] | AC50 (MYB mRNA [2]; [8]) [nM] | AC50 (HTT mRNA [1]; [11]) [nM] | AC50 (MYB mRNA [2]; [13]) [nM] |
| --- | --- | --- | --- | --- | --- | --- | --- | --- | --- | --- | --- | --- | --- |
| – | – | – | – | > 10000 | > 10000 | 1000 to 10000 | > 10000 | 1000 to 10000 | CCNC1CCN(c2ccc(C(=O)Nc3cc(CNS(C)(=O)=O)c4nc(C)cn4c3)c3nn(C)cc23)CC1 [Compound 817, 4-[4-(ethylamino)-1-piperidyl]-N-[8-(methanesulfonamidomethyl)-2-methyl-imidazo[1,2-a]pyridin-6-yl]-2-methyl-indazole-7-carboxamide] | – | – | > 10000 | 1000 to 10000 |
| – | – | – | – | 1000 to 10000 | 1000 to 10000 | 1000 to 10000 | 1000 to 10000 | 1000 to 10000 | CCNC1CCN(c2ccc(C(=O)Nc3cc4cn(C)nc4cc3OC)c3nc(OC)sc23)CC1 [Compound 669, 7-[4-(ethylamino)-1-piperidyl]-2-methoxy-N-(6-methoxy-2-methyl-indazol-5-yl)-1,3-benzo-thiazole-4-carboxamide] | – | – | 1000 to 10000 | 100 to 1000 |
| – | – | – | – | 1000 to 10000 | > 10000 | > 10000 | > 10000 | > 10000 | Cc1cn2nc(NC(=O)c3ccc(N4CCC(NC5CC5)CC4)c4cn(C)nc34)cc(CNS(C)(=O)=O)c2n1 [Compound 842] | – | – | > 10000 | > 10000 |
| – | – | – | – | 1000 to 10000 | 1000 to 10000 | 1000 to 10000 | 1000 to 10000 | 1000 to 10000 | Cn1cc2cc(NC(=O)c3ccc(N4CCC(NC5CC5)CC4)c4cn(C)nc34)cc(CNc3nccs3)c2n1 [Compound 881] | – | – | > 10000 | 100 to 1000 |
| – | – | – | – | > 10000 | > 10000 | 1000 to 10000 | > 10000 | 1000 to 10000 | CCNC1CCN(c2ccc(C(=O)Nc3cc(CN4CCCC4=O)c4nn(C)cc4c3)c3nn(C)cc23)CC1 [Compound 820, 4-[4-(ethylamino)-1-piperidyl]-2-methyl-N-[2-methyl-7-[(2-oxopyrrolidin-1-yl)methyl]indazol-5-yl]indazole-7-carboxamide] | – | – | > 10000 | > 10000 |
| – | – | – | – | 100 to 1000 | > 10000 | < 100 | > 10000 | < 100 | COc1nc2c(C(=O)Nc3cc(C#N)c4nc(C)cn4c3)ccc(N3C[C@H](C)N[C@@H](C)C3)c2s1 [Compound 758, N-(8-cyano-2-methyl-imidazo[1,2-a]pyridin-6-yl)-7-[(3S,5S)-3,5-dimethylpiperazin-1-yl]-2-methoxy-1,3-benzothiazole-4-carboxamide] | – | – | > 10000 | < 100 |
| – | – | – | – | > 10000 | > 10000 | > 10000 | > 10000 | > 10000 | CCNC1CCN(c2ccc(C(=O)Nc3cn4cc(C)nc(CC(N)=O)c4n3)c3nn(C)cc23)CC1 [Compound 857] | – | – | > 10000 | > 10000 |
| – | – | – | – | 1000 to 10000 | > 10000 | 1000 to 10000 | > 10000 | 1000 to 10000 | Cn1cc2cc(NC(=O)c3ccc(N4CCC(NC5CC5)CC4)c4cn(C)nc34)cc(Cn3ccnn3)c2n1 [Compound 823] | – | – | > 10000 | 100 to 1000 |
| – | – | – | – | 1000 to 10000 | 1000 to 10000 | 1000 to 10000 | 1000 to 10000 | 1000 to 10000 | CCNC1CCN(c2ccc(C(=O)Nc3cc(CCC(=O)NC)c4nn(C)cc4c3)c3nn(C)cc23)CC1 [Compound 876] | – | – | 1000 to 10000 | 1000 to 10000 |
| > 10000 | 100 to 1000 | > 10000 | 100 to 1000 | 1000 to 10000 | – | – | – | – | Cc1cn2cc(NC(=O)c3ccc(N4CCC5(CCCN5)CC4)c4cn(C)nc34)nc2c(C)n1 [Compound 529] | > 10000 | 100 to 1000 | – | – |
